Patent US20110112145A1, “Salts Of Methyl 2-((R))-(3-Chlorophenyl)((R)-1-((S)-2-(Methylamino)-3((R)-tetrahydro-2H-Pyran-3-YL)Propylcarbamoyl)Piperidin-3-YL)Methoxy)Ethylcarbamate” (priority 2008, published 2011)
Each block holds one molecule with its values, some of them ahead of it.

Columns and labels:
[1] = Oral bioavailability in Beagle dogs; format: in vivo, male Beagle dogs; settings: Dog
Description: Oral pharmacokinetic data in male Beagle dogs was obtained for a solution formulation of Compound D and capsule formulations of Compound A-form I, Compound B-form I, and Compound C-form I. Compound D was administered by oral gavage as a clear, colorless solution in water containing 2% DMSO (final pH=3.5), which was filtered, using a 0.22 μm MILLEX-GV filter, prior to administration. The above noted Compounds A, B, and C were each administered at a dose of 5 mg/kg in gelatin capsules (1.37 mL). Blood (50 μL) was sampled at the following time intervals: 0, 20, 40, 60, 120, 180, 240, 360, 480, 600, and 1440 min.
(§1) The concentration of each compound was quantified by LC/MS/MS analysis of an aliquot (25 μL blood+25 μL water) of these samples and the overall blood exposure reported as the Dose-Normalized Area Under the Curve (DNAUC) from a concentration versus time plot and expressed in the units kilogram hours per liter (kg·h/L). All oral bioavailabilities were calculated by dividing the DNAUC from an oral segment by the DNAUC from an i.v. segment and multiplying by 100.

[2] = Oral bioavailability in Sprague-Dawley rats; format: in vivo, male Sprague-Dawley rats; settings: for DNAUC (Dose-Normalized Area Under the Curve, blood) / Oral Bioavailability (%): Rat; for Oral Bioavailability (%): oral DNAUC / i.v. DNAUC x 100
Description: Oral pharmacokinetic data in male Sprague-Dawley rats was obtained for a solution formulation of Compound D and a suspension formulation of micronized Compound E. Compound D was administered by oral gavage as a clear, colorless solution in a formulation with 0.5% methylcellulose in water at a dose of 10 mg/kg (5 mL of dose solution per kg). Blood was sampled at the following time intervals: 0, 5, 15, 30, 60, 120, 180, 240, 360, 480, and 1440 min. Compound E was administered as a suspension by gastric bolus in a formulation with 1% methylcellulose in water at a dose of 5 mg/kg (10 mL of dose solution per kg). Blood (50 μL) was sampled at the following time intervals: 0, 20, 40, 60, 120, 180, 240, 360, 480, 720, 960, 1200, and 1440 min.
as §1

[3] = oral, gelatin capsule, 5 mg/kg, form I of each compound
[4] = oral, gelatin capsule, 5 mg/kg, form I of each compound, oral DNAUC / i.v. DNAUC x 100
[5] = gastric bolus, suspension of micronized compound in 1% methylcellulose in water, 5 mg/kg
[6] = oral gavage, solution in 0.5% methylcellulose in water, 10 mg/kg

Compound: CN[C@H](CNC(=O)N1CCC[C@@H]([C@@H](OCCNC(=O)OC)c2cccc(Cl)c2)C1)C[C@H]1CCCOC1.O=C(O)C(=O)O [Compound C]
DNAUC (Dose-Normalized Area Under the Curve, blood) [1, 3]: 0.64 kg·h/L | Oral Bioavailability (%) [1, 4]: 59%

Compound: CN[C@H](CNC(=O)N1CCC[C@@H]([C@@H](OCCNC(=O)OC)c2cccc(Cl)c2)C1)C[C@H]1CCCOC1.O=C(O)/C=C/C(=O)O [Compound D, methyl 2-((R)-(3-chlorophenyl)((R)-1-((S)-2-(methylamino)-3-((R)-tetrahydro-2H-pyran-3-yl)propylcarbamoyl)piperidin-3-yl)methoxy)ethylcarbamate fumaric acid]
DNAUC (Dose-Normalized Area Under the Curve, blood) [2, 6]: 0.048 kg·h/L | Oral Bioavailability (%) [2, 6]: 37% | DNAUC (Dose-Normalized Area Under the Curve, blood) ([1]; oral gavage, solution in water containing 2% DMSO (final pH=3.5), dose not given): 0.46 kg·h/L | bioavailability ([1]; male, Beagle, whole blood, oral gavage, solution in water containing 2% DMSO (final pH=3.5), dose not given, oral DNAUC / i.v. DNAUC x 100): 43%

The next lines start with the values.

DNAUC (Dose-Normalized Area Under the Curve, blood) [1, 3]: 0.40 kg·h/L | Oral Bioavailability (%) [1, 4]: 37%
Compound: CC(=O)N[C@@H](Cc1ccccc1)C(=O)O.CN[C@H](CNC(=O)N1CCC[C@@H]([C@@H](OCCNC(=O)OC)c2cccc(Cl)c2)C1)C[C@H]1CCCOC1 [Compound B]

DNAUC (Dose-Normalized Area Under the Curve, blood) [2, 5]: 0.0067 kg·h/L | Oral Bioavailability (%) [2, 5]: 5% | in vivo oral bioavailability ([2]; statement in the background section, species not given): low
Compound: CN[C@H](CNC(=O)N1CCC[C@@H]([C@@H](OCCNC(=O)OC)c2cccc(Cl)c2)C1)C[C@H]1CCCOC1.CN[C@H](CNC(=O)N1CCC[C@@H]([C@@H](OCCNC(=O)OC)c2cccc(Cl)c2)C1)C[C@H]1CCCOC1.O=C(O)c1cc2ccccc2c(Cc2c(O)c(C(=O)O)cc3ccccc23)c1O [Compound E, 2:1 pamoate salt of methyl 2-((R)-(3-chlorophenyl)((R)-1-((S)-2-(methylamino)-3-((R)-tetrahydro-2H-pyran-3-yl)propylcarbamoyl)piperidin-3-yl)methoxy)ethylcarbamate]

DNAUC (Dose-Normalized Area Under the Curve, blood) [1, 3]: 0.38 kg·h/L | Oral Bioavailability (%) [1, 4]: 35%
Compound: CN[C@H](CNC(=O)N1CCC[C@@H]([C@@H](OCCNC(=O)OC)c2cccc(Cl)c2)C1)C[C@H]1CCCOC1.CN[C@H](CNC(=O)N1CCC[C@@H]([C@@H](OCCNC(=O)OC)c2cccc(Cl)c2)C1)C[C@H]1CCCOC1.Cc1ccc(C(=O)O[C@@H](C(=O)O)[C@@H](OC(=O)c2ccc(C)cc2)C(=O)O)cc1 [Compound A]
